{"source": "patent US12653800B2", "about": "“Small molecule inhibitors of TLR2 signaling” (University of Maryland, Baltimore, priority 2015, dated 2026)", "assay_type_in_all_cases": "cell-based", "key": {"TLR2/1 [1]": {"target": "TLR2/1 (Mus musculus, UniProt Q9QUN7)", "sequence (Q9QUN7 25-784)": "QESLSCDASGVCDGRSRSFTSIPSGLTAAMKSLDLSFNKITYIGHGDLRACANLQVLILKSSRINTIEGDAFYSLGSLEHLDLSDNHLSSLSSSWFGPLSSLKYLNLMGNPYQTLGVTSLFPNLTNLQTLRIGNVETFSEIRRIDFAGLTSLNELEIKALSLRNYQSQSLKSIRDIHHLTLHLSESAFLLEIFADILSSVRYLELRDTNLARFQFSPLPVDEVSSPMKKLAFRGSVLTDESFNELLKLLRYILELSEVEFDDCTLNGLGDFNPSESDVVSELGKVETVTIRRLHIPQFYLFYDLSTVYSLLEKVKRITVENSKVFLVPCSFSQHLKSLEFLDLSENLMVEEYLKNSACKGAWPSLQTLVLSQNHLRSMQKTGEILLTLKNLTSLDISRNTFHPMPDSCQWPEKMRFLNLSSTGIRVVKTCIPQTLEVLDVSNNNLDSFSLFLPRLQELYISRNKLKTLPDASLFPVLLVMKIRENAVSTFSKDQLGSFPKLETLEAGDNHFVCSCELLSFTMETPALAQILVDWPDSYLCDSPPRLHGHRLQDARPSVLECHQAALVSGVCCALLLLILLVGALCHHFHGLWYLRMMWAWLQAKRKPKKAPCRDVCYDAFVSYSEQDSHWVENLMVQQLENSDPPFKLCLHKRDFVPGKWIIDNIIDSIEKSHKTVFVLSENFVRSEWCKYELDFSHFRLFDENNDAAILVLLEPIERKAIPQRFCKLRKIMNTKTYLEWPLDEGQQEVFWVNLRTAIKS", "assay": "Cytokine mRNA/protein in murine peritoneal macrophages stimulated with TLR2/1 agonists (P3C, LTA SA)"}, "TLR2/6 [2]": {"target": "TLR2/6 (Mus musculus, UniProt Q9QUN7)", "sequence (Q9QUN7 25-784)": "as above", "assay": "Cytokine mRNA in murine peritoneal macrophages stimulated with TLR2/6 agonists (P2C, zymosan)"}, "TLR4": {"target": "T1, TLR4 (Mus musculus, UniProt Q9QUK6)", "T1 sequence (Q9QUK6 26-835)": "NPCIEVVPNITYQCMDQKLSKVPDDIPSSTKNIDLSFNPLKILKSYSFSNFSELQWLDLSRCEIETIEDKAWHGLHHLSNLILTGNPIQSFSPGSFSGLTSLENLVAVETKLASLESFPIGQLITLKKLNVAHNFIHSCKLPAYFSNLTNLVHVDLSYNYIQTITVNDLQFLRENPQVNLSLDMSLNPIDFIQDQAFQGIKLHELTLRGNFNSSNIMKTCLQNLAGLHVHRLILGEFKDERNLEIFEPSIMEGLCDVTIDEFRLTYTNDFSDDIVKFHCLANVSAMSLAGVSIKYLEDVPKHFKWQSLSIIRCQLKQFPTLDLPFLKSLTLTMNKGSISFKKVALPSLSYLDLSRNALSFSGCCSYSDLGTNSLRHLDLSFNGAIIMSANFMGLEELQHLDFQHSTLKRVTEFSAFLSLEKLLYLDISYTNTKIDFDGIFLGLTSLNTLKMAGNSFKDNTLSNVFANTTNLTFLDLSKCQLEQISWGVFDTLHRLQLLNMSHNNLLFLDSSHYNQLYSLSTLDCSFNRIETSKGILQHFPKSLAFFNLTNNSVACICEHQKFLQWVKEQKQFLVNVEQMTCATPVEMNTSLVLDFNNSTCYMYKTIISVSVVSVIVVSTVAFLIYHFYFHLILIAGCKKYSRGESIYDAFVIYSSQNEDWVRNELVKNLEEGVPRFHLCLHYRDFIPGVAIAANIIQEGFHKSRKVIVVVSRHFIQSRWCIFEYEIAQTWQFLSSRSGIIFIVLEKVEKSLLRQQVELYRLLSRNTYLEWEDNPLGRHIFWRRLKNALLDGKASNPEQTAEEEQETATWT", "T1 sequence (Q9JHF9 19-160 partner)": "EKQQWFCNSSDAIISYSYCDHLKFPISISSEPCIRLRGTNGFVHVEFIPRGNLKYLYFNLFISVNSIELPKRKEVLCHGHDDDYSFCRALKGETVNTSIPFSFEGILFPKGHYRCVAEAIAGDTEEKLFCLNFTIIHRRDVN", "assay": "Cytokine mRNA in murine peritoneal macrophages stimulated with TLR4 agonists (LPS, HKEC)"}, "TLR2/1 [3]": {"target": "T2, TLR2/1 (Homo sapiens, UniProt O60603)", "T2 sequence (O60603 21-784)": "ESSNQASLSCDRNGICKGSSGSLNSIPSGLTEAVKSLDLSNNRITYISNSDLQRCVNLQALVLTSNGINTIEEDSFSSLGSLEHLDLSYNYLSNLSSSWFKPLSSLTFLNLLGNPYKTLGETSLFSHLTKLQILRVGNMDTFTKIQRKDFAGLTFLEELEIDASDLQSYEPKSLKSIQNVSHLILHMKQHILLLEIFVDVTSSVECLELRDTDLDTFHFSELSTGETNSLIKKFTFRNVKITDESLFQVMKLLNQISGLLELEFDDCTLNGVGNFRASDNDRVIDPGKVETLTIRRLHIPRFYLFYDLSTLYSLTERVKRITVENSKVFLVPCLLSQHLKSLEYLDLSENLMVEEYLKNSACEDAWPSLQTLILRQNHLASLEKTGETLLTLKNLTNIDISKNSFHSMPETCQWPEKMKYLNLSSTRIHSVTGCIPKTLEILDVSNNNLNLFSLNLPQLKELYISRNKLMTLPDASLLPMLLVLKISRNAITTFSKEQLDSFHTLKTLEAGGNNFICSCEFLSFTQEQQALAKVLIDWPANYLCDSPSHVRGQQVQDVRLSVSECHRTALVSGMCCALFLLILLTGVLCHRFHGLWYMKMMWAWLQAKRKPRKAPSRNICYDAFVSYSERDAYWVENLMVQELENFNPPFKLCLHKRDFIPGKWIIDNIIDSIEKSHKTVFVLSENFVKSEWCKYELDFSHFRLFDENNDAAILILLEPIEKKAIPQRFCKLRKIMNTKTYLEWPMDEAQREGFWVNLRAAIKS", "assay": "P3C-induced IL-8 mRNA (qRT-PCR) in HEK-TLR2 stable transfectants", "parameters": "expressed in transfected cells", "conditions": "for percent inhibition, TLR2/1 versus TLR2/6 stimulation: HEK-TLR2 cells, human TLR2 signaling"}, "TLR2/1 [4]": {"target": "T2, TLR2/1", "assay": "NF-κβ (ELAM)-luciferase reporter assay in transiently transfected HEK293T cells, P3C", "parameters": "expressed in transfected cells; host or cells: HEK293T, transient transfection (Superfect)", "conditions": "P3C 50 ng/mL 5 hrs; for IC50: NF-κβ reporter assay in HEK293T cells, 1 μM-250 μM, read-out: IC50 for human TLR2/1 signaling", "description": "(§1) FIG. 8. C29 inhibits hTLR2/1- and hTLR2/6-induced NF-κβ activation. (A, B) HEK293T cells were transiently transfected with reporter constructs for ELAM-luciferase, Renilla-luciferase, and either pcDNA3.1 or pcDNA3-YFP-hTLR2. Cells were pretreated for 1 hr with media, vehicle (65 μM NaOH), or C29 (50 μM) and treated with P3C or P2C (50 ng/mL) for 5 hrs in the presence of media, vehicle, or C29. Lysates were prepared and the dual-luciferase assay performed. Results are representative of 3 independent experiments each carried out in duplicate (**, p≤0.01; ***, p≤0.001).\n(§2) FIG. 9. C29 is species-specific and blocks human TLR2/6 signaling, but not murine TLR2/6 signaling. (A-D) HEK293T cells were transiently transfected with reporter constructs for ELAM-luciferase, Renilla-luciferase, and pcDNA3.1 in combination with/without pcDNA3-YFP-hTLR2, pFLAG-CMV1-hTLR1, pcDNA3-CFP-hTLR6, pcDNA3.1-mTLR2-CFP, pcDNA3.1-mTLR1-YFP, or pcDNA3.1-mTLR6-CFP. Cells were pretreated for 1 hr with media, vehicle (65 μM NaOH), or C29 (50 μM) and then treated with P3C or P2C (50 ng/mL) for 5 hrs in the presence of media, vehicle, or C29. Lysates were prepared and the dual-luciferase assay performed. Panels A and B represent the mean±SEM from 3 independent experiments and panels C and D represent the mean±SEM from 2 independent experiments each carried out in duplicate (*, p≤0.05; **, p≤0.01).\nFIG. 12. C29 L blocks human TLR2/1 and TLR2/6 signaling comparably to C29 in HEK293T cells. (A-D) HEK293T cells were transiently transfected with reporter constructs for ELAM-luciferase, Renilla-luciferase, and pcDNA3-YFP-hTLR2. Cells were pretreated for 1 hr with C29 or C29L (1 μM-250 μM) and treated with P3C or P2C (50 ng/mL) for 5 hrs in the presence of C29 or C29L. […]\nHEK293T cells were cultured and plated overnight in 12-well tissue culture plates (2×10^5 cells/well). […] Cells were lysed in a passive lysis buffer (Promega, Madison, WI) and firefly luciferase and Renilla luciferase activities were measured using the dual luciferase reporter assay system (Promega, Madison, WI). […]"}, "TLR2/6 [5]": {"target": "TLR2/6 (Homo sapiens, UniProt O60603)", "sequence (O60603 21-784)": "as above", "assay": "NF-κβ (ELAM)-luciferase reporter assay in transiently transfected HEK293T cells, P2C", "parameters": "expressed in transfected cells; host or cells: HEK293T, transient transfection (Superfect)", "conditions": "P2C 50 ng/mL 5 hrs; for IC50: NF-κβ reporter assay in HEK293T cells, 1 μM-250 μM, read-out: IC50 for human TLR2/6 signaling", "description": "as §1, §2\nFIG. 12. C29 L blocks human TLR2/1 and TLR2/6 signaling comparably to C29 in HEK293T cells. (A-D) HEK293T cells were transiently transfected with reporter constructs for ELAM-luciferase, Renilla-luciferase, and pcDNA3-YFP-hTLR2. Cells were pretreated for 1 hr with C29 or C29L (1 μM-250 μM) and treated with P3C or P2C (50 ng/mL) for 5 hrs in the presence of C29 or C29L. Lysates were prepared and dual-luciferase assay performed. Data is representative of 2 independent experiments each carried out in duplicate.\nHEK293T cells were cultured and plated overnight in 12-well tissue culture plates (2×10^5 cells/well). Transfection mixtures consisted of pcDNA3-YFP-hTLR2 or pcDNA3.1 control vector (1 μg/well each), pELAM (NF-κB)-luciferase (0.2 μg/well), and pRL-TK-Renilla luciferase (0.05 μg/well). Transfection was carried out using Superfect transfection reagent, cells were recovered for 48 h, and treated for 5 h with medium or stimuli in the presence/absence of C29. Cells were lysed in a passive lysis buffer (Promega, Madison, WI) and firefly luciferase and Renilla luciferase activities were measured using the dual luciferase reporter assay system (Promega, Madison, WI). […]"}, "[6]": {"conditions": "HEK293T expressing human TLR2, C29 50 μM"}}}
{"compound": "COc1cccc(C=O)c1O", "note": "[Compound C29L, ortho-vanillin]", "values": [{"measurement": "TLR2/1-induced TNF-α gene expression", "setting": "TLR2/1 [1]; murine macrophages, 25 μM or 50 μM, P3C 50 ng/mL 1 hr", "result": "dose-dependently inhibited"}, {"measurement": "TLR2/6 signaling pathway (TNF-α mRNA)", "setting": "TLR2/6 [2]; 25 μM or 50 μM, P2C 100 ng/mL 1 hr", "result": "no effect"}, {"measurement": "TLR4 signaling pathway (TNF-α mRNA)", "setting": "TLR4; 25 μM or 50 μM, LPS 100 ng/mL 1 hr", "result": "no effect"}, {"measurement": "percent inhibition, TLR2/1 versus TLR2/6 stimulation", "setting": "TLR2/1 [3]", "result": "consistently greater when TLR2/1 is stimulated"}, {"measurement": "IC50", "setting": "TLR2/1 [4]", "result": 24.2, "unit": "µM"}, {"measurement": "IC50", "setting": "TLR2/6 [5]", "result": 37.2, "unit": "µM"}]}
{"compound": "COc1cccc(/C=N/c2cccc(C(=O)O)c2C)c1O", "note": "[Compound C29]", "values": [{"measurement": "P3C-induced IL-1β mRNA", "setting": "TLR2/1 [1]; murine macrophages, C29 50 μM, P3C 50 ng/mL 3 hrs", "result": "specifically blocked"}, {"measurement": "LTA SA-induced IL-1β mRNA", "setting": "TLR2/1 [1]; murine macrophages, C29 50 μM, S. aureus LTA 1 μg/mL 3 hrs", "result": "specifically blocked"}, {"measurement": "P3C-induced TNF-α mRNA", "setting": "TLR2/1 [1]; murine peritoneal macrophages, C29 25 μM or 50 μM, P3C 50 ng/mL 1 hr", "result": "significantly reduced"}, {"measurement": "P3C-induced IL-12 p40 protein (ELISA)", "setting": "TLR2/1 [1]; murine peritoneal macrophages, C29 50 μM, P3C 50 ng/mL 4 or 6 hrs", "result": "significantly reduced"}, {"measurement": "zymosan-induced IL-1β mRNA", "setting": "TLR2/6 [2]; C29 50 μM, zymosan 10 μg/mL 3 hrs", "result": "did not inhibit"}, {"measurement": "heat-killed Escherichia coli (HKEC)-induced IL-1β mRNA", "setting": "TLR4; C29 50 μM, MOI=0.1, 4 hrs, signals predominately through TLR4", "result": "not blocked"}, {"measurement": "P3C-induced IL-8 mRNA", "setting": "TLR2/1 [3]; C29 10 μM or 50 μM, P3C 200 ng/mL 1 hr, HEK-TLR2 stable transfectants", "result": "blocked P3C- and P2C-induced IL-8 mRNA dose-dependently"}, {"measurement": "percent inhibition, TLR2/1 versus TLR2/6 stimulation", "setting": "TLR2/1 [3]", "result": "consistently greater when TLR2/1 is stimulated"}, {"measurement": "P3C-induced NF-κβ-luciferase activity", "setting": "TLR2/1 [4]; [6]", "result": "inhibited"}, {"measurement": "IC50", "setting": "TLR2/1 [4]", "result": 19.7, "unit": "µM"}, {"measurement": "P2C-induced NF-κβ-luciferase activity", "setting": "TLR2/6 [5]; [6]", "result": "inhibited"}, {"measurement": "hTLR2/6-induced NF-κβ-luciferase activity", "setting": "TLR2/6 [5]; HEK293T transfected with human TLR2 and TLR6, C29 50 μM", "result": "significantly inhibited"}, {"measurement": "IC50", "setting": "TLR2/6 [5]", "result": 37.6, "unit": "µM"}]}
